These results are taken from article PMC8400257, “2-Phenoxy-3-Trichloromethylquinoxalines Are Antiplasmodial Derivatives with Activity against the Apicoplast of Plasmodium falciparum” (Pharmaceuticals, 2021).

Read-outs that look alike come from different tables or passages of the source.

Series [1] deals with K1 chloroquine and pyrimethamine-resistant P. falciparum strain. Description: In vitro antiplasmodial evaluation (SYBR Green I). To be noted: for EC50: read-out: EC50 PfK1 (µM) ± SD; for SI (selectivity index): SI = CC50 HepG2/EC50 PfK1. It is filed as cell-based, Plasmodium falciparum. The procedure:
(§1) For all molecules, the selectivity index was calculated as following SI = CC50/EC50.
It was maintained in continuous culture, as described previously by Trager and Jensen. Cultures were maintained in fresh A+ human erythrocytes at 2.5% hematocrit in complete medium (RPMI 1640 with 25 mM HEPES, 25 mM NaHCO3, 10% of A+ human serum) at 37 °C under reduced O2 atmosphere (gas mixture 10% O2, 5% CO2, and 85% N2). Parasitemia was maintained daily between 1 and 3%. The P. falciparum drug susceptibility test was carried out by comparing quantities of DNA in treated and control cultures of parasite in human erythrocytes according to an SYBR Green I fluorescence-based method using a 96-well fluorescence plate reader. Compounds, previously dissolved in DMSO (final concentration less than 0.5% v/v), were incubated in a total assay volume of 200 μL (RPMI, 2% hematocrit and 0.4% parasitemia) for 72 h in a humidified atmosphere (10% O2 and 5% CO2) at 37 °C, in 96-well flat bottom plates. Duplicate assays were performed for each sample. After incubation, plates were frozen at […] for 24 h. Then, the frozen plates were thawed for 1 h at 37 °C. Fifteen µL of each sample were transferred to 96-well flat bottom non-sterile black plates (Greiner Bio-one, Kremsmünster, Austria), already containing 15 µL of the SYBR Green I lysis buffer (2X SYBR Green I, 20 mM Tris base pH 7.5, 20 mM EDTA, 0.008% w/v saponin, 0.08% w/v Triton X-100). […] Plates were incubated for 15 min at 37 °C and then read on a TECAN Infinite F-200 spectrophotometer with excitation and emission wavelengths at 485 and 535 nm, respectively.

Series [2] in a line: In vitro cytotoxicity evaluation HepG2 (MTT). The conditions noted are these: human, CC50 HepG2 (µM) ± SD. The series is classed as cell-based, human. How it is done:
as §1
Triplicate assays were performed for each sample. Each plate-well was then microscopically examined for possible precipitate formation before the medium was aspirated from the wells. Next, 100 µL of MTT (3-(4,5-dimethyl-2-thiazolyl)-2,5-diphenyl -2H-tetrazolium bromide) solution (0.5 mg/mL in medium without FBS) was added to each well. […] After this time, the MTT solution was removed and DMSO (100 μL) was added to dissolve the resulting blue formazan crystals. Plates were shaken vigorously (700 rpm) for 10 min. The absorbance was measured at 570 nm with 630 nm as reference wavelength using a BIO-TEK ELx808 Absorbance Microplate Reader (LabX, Midland, ON, Canada). DMSO was used as blank and doxorubicin (purchased from Sigma Aldrich) as positive control. Cell viability was calculated as a percentage of control (cells incubated without compound). […] CC50 values to represent the mean value calculated from three independent experiments.

Series [3] in a line: Aqueous solubility in the cell culture medium. The series is classed as physicochemical. The procedure:
It appeared that the cluttered derivatives (3q, 3s) and the 2-chlorophenoxy derivative (3b) were the less cytotoxic compounds.
The HepG2 cell line was maintained at 37 °C, 5% CO2, at 90% humidity in MEM supplemented with 10% fetal bovine serum, 1% L-glutamine (200 mM), and penicillin (100 U/mL)/streptomycin (100 μg/mL) (complete RPMI medium). The cytotoxicity of the tested molecules on the HepG2 (hepatocarcinoma cell line purchased from ATCC, ref HB-8065) cell line was assessed according to the method of Mosmann with slight modifications. Briefly, 5.10^3 cells in 100 μL of complete medium were inoculated into each well of 96-well plates and incubated at 37 °C in humidified 5% CO2. After 24 h incubation, 100 μL of medium with various product concentrations dissolved in DMSO (final concentration less than 0.5% v/v) were added and the plates were incubated for 72 h at 37 °C. Triplicate assays were performed for each sample. Each plate-well was then microscopically examined for possible precipitate formation before the medium was aspirated from the wells. Next, 100 µL of MTT (3-(4,5-dimethyl-2-thiazolyl)-2,5-diphenyl -2H-tetrazolium bromide) solution (0.5 mg/mL in medium without FBS) was added to each well. Cells were incubated for 2 h at 37 °C. After this time, the MTT solution was removed and DMSO (100 μL) was added to dissolve the resulting blue formazan crystals. Plates were shaken vigorously (700 rpm) for 10 min. The absorbance was measured at 570 nm with 630 nm as reference wavelength using a BIO-TEK ELx808 Absorbance Microplate Reader (LabX, Midland, ON, Canada). DMSO was used as blank and doxorubicin (purchased from Sigma Aldrich) as positive control. Cell viability was calculated as a percentage of control (cells incubated without compound). […] CC50 values to represent the mean value calculated from three independent experiments.

[4] abbreviates: Plasmodium falciparum, K1, 72 h, K1 strain, 72 h incubation, three independent experiments.
Where [5] appears, read: K1 strain, 72 h incubation, three independent experiments.

`Clc1ccccc1Oc1nc2ccccc2nc1C(Cl)(Cl)Cl` [3b, 2-(2-Chlorophenoxy)-3-trichloromethylquinoxaline] returned a melting point of 99 °C. Further, the concentration giving a half-maximal response (EC50) in series [1] (setting [4]) was 0.55 ± 0.12 µM. Besides, the “SI (selectivity index)” value in series [1] came to 90.0. Also, the CC50 at 72 h in series [2] amounted to 49.5 ± 10.1 µM.
Turning to `CCN(CC)CCCC(C)Nc1ccnc2cc(Cl)ccc12` (stereo not shown) [Chloroquine, reference compound], the EC50 in series [1] (Plasmodium falciparum, K1, 72 h) was 0.8 µM.
For `ClC(Cl)(Cl)c1nc2ccccc2nc1Oc1ccc(-c2ccccc2)cc1` [3s, 2-([1,1′-Biphenyl]-4-yloxy)-3-trichloromethylquinoxaline], the melting point was 160 °C. In addition, the EC50 in series [1] (setting [4]) was 0.6 ± 0.1 µM. Moreover, the “SI (selectivity index)” value in series [1] is listed as above 104.2. The molecule also gave a CC50 at 72 h in series [2] above 62.5 µM. Also, the “Aqueous solubility in the cell culture medium” value (shortened to “Aqueous solubility”) in series [3] was “poor aqueous solubility”.
Take `O=[N+]([O-])c1ccc(Oc2nc3ccccc3nc2C(Cl)Cl)cc1` [3w, 2-Dichloromethyl-3-(4-nitrophenoxy)quinoxaline]: the melting point was 112 °C. For the same molecule, the EC50 in series [1] (setting [4]) was above 16 µM.
Take `Fc1ccc(Oc2nc3ccccc3nc2C(Cl)(Cl)Cl)cc1` [3g, 2-(4-Fluorophenoxy)-3-trichloromethylquinoxaline]: the melting point came to 56 °C. Further, in series [1] (setting [4]), the EC50 came to 0.42 ± 0.09 µM. In series [1], the “SI (selectivity index)” value came to 85.5. Half-maximal cytotoxicity in series [2] (CC50 at 72 h) was put at 35.9 ± 7.5 µM.
The like results for `Clc1cccc(Oc2nc3ccccc3nc2C(Cl)(Cl)Cl)c1` [3c] were, in that order, 58 °C, 0.34 ± 0.06 µM, 109.4 and 37.2 ± 8.1 µM.
`O=[N+]([O-])c1ccc(Oc2nc3ccccc3nc2C(F)(F)F)cc1` [3v, 2-(4-Nitrophenoxy)-3-trifluoromethylquinoxaline] had a melting point of 125 °C. The EC50 in series [1] (setting [5]) was above 16 µM. The EC50 in series [1] (setting [4]) is above 25 µM.
Turning to `COc1ccc(Oc2nc3ccccc3nc2C(Cl)(Cl)Cl)cc1` [3h, 2-(4-Methoxyphenoxy)-3-trichloromethylquinoxaline], the melting point stood at 171 °C. In addition, the EC50 in series [1] (setting [4]) stood at 0.38 ± 0.08 µM. For the same molecule, the “SI (selectivity index)” value in series [1] is above 20.6. The molecule also had a CC50 at 72 h in series [2] above 7.8 µM. The “Aqueous solubility” value in series [3] is “poor aqueous solubility”.
The like results for `Fc1ccccc1Oc1nc2ccccc2nc1C(Cl)(Cl)Cl` [3e, 2-(2-Fluorophenoxy)-3-trichloromethylquinoxaline] were, in that order, 138 °C, 0.64 ± 0.14 µM, above 24.4, above 15.6 µM and “poor aqueous solubility”.
`ClC(Cl)(Cl)c1nc2ccccc2nc1Oc1ccccc1` [3a, 2-Phenoxy-3-trichloromethylquinoxaline]: the melting point is 59 °C. Moreover, in series [1] (setting [4]), the EC50 amounted to 0.47 ± 0.1 µM. For the same molecule, in series [1], the “SI (selectivity index)” value came out at 96.4. Further, in series [2], the CC50 at 72 h stood at 45.3 ± 9.6 µM.
The like results for `FC(F)(F)Sc1ccc(Oc2nc3ccccc3nc2C(Cl)(Cl)Cl)cc1` [3m, 2-Trichloromethyl-3-[4-(trifluoromethylthio)phenoxy]quinoxaline] were, in that order, 94 °C, 0.2 ± 0.04 µM, 128.0 and 25.6 ± 4.6 µM.
For the molecule `ClC(Cl)(Cl)c1nc2ccccc2nc1Oc1cccc(-c2ccccc2)c1` [3t, 2-([1,1′-Biphenyl]-3-yloxy)-3-trichloromethylquinoxaline], the half-maximal effective concentration (EC50) in series [1] (setting [4]) was found to be 0.5 ± 0.05 µM. Further, the “SI (selectivity index)” value in series [1] is above 62.5. The CC50 at 72 h in series [2] is above 31.2 µM. In addition, the “Aqueous solubility” value in series [3] is recorded as “poor aqueous solubility”.
As to `C[C@H]1[C@H](OC(=O)CCC(=O)O)O[C@@H]2O[C@@]3(C)CC[C@H]4[C@H](C)CC[C@@H]1[C@@]24OO3` [Artesunate, reference compound], the EC50 in series [1] (setting [4]) is 0.003 ± 0.0012 µM. Further, the “SI (selectivity index)” value in series [1] is listed as 4900. In series [2], this molecule displayed a CC50 at 72 h of 14.7 ± 1.4 µM.
For `Clc1ccc(Oc2nc3ccccc3nc2C(Cl)(Cl)Cl)c(Cl)c1` [3d, 2-(2,4-Dichlorophenoxy)-3-trichloromethylquinoxaline], the melting point was 120 °C. Also, the EC50 in series [1] (setting [4]) was found to be 0.6 ± 0.12 µM. Moreover, the “SI (selectivity index)” value in series [1] worked out at 62.8. For the same molecule, in series [2], it took 37.7 ± 4.7 µM to reach half-maximal cytotoxicity (CC50 at 72 h).
The corresponding values for `Fc1cccc(Oc2nc3ccccc3nc2C(Cl)(Cl)Cl)c1` [3f, 2-(3-Fluorophenoxy)-3-trichloromethylquinoxaline] are 101 °C, 0.32 ± 0.07 µM, 105.0 and 33.5 ± 6.3 µM.
The corresponding values for `O=S(=O)(c1ccc(Oc2nc3ccccc3nc2C(Cl)(Cl)Cl)cc1)C(F)(F)F` [3o, 2-Trichloromethyl-3-[4-(trifluoromethylsulfonyl)phenoxy]quinoxaline] are 107 °C, 0.22 ± 0.07 µM, 32.7 and 7.2 ± 1.4 µM.
For the molecule `O=[N+]([O-])c1ccc(Oc2cnc3ccccc3n2)cc1` [3u, 2-(4-Nitrophenoxy)quinoxaline], the melting point is 156 °C. The EC50 in series [1] (setting [5]) was above 16 µM. Moreover, the EC50 in series [1] (setting [4]) is above 25 µM.
`FC(F)(F)Oc1ccc(Oc2nc3ccccc3nc2C(Cl)(Cl)Cl)cc1` [3k, 2-Trichloromethyl-3-[4-(trifluoromethoxy)phenoxy]quinoxaline] registered a melting point of 66 °C. In series [1] (setting [4]), the EC50 is 0.4 ± 0.08 µM. Further, the “SI (selectivity index)” value in series [1] was found to be 67.8. Moreover, in series [2], the midpoint of cytotoxicity, the CC50 at 72 h, lay at 27.1 ± 4.7 µM.
For `FC(F)(F)c1ccc(Oc2nc3ccccc3nc2C(Cl)(Cl)Cl)cc1` [3j, 2-Trichloromethyl-3-[4-(trifluoromethyl)phenoxy]quinoxaline], the melting point amounted to 129 °C. Further, the EC50 in series [1] (setting [4]) was 0.3 ± 0.06 µM. The “SI (selectivity index)” value in series [1] came to 94.3. Besides, in series [2], the CC50 at 72 h was 28.3 ± 4.4 µM.
Turning to `C[C@H]1c2cccc(O)c2C(=O)C2=C(O)[C@]3(O)C(=O)C(C(N)=O)=C(O)[C@@H](N(C)C)[C@@H]3[C@@H](O)[C@@H]21` [Doxycycline, reference compound], the concentration for a half-maximal effect (EC50) in series [1] (setting [4]) came to 6 µM. In addition, the “SI (selectivity index)” value in series [1] came out at 3.3. In series [2], it took 20 µM to reach half-maximal cytotoxicity (CC50 at 72 h).
`N=S(=O)(c1ccc(Oc2nc3ccccc3nc2C(Cl)(Cl)Cl)cc1)C(F)(F)F` (stereo not shown) [3p, 2-Trichloromethyl-3-[4-(S-trifluoromethylsulfonimidoyl)phenoxy]quinoxaline] had a melting point of 127 °C. Moreover, in series [1] (setting [4]), the EC50 worked out at 0.21 ± 0.05 µM. Also, the “SI (selectivity index)” value in series [1] is recorded as 31.0. Besides, in series [2], the CC50 at 72 h is 6.5 ± 1.4 µM.
Consider `COc1cccc2c1C(=O)c1c(O)c3c(c(O)c1C2=O)C[C@@](O)(C(=O)CO)C[C@@H]3O[C@H]1C[C@H](N)[C@H](O)[C@H](C)O1` [Doxorubicin, reference compound], for which the midpoint of cytotoxicity in series [2], the CC50 at 72 h, lay at 0.2 µM.
